Measurements published in patent US11634396B2 (priority 2021, dated 2023).

target: human mOR (Homo sapiens (Human), UniProt P35372); assay: cell-based; details: not given
Sequence (P35372 whole entry): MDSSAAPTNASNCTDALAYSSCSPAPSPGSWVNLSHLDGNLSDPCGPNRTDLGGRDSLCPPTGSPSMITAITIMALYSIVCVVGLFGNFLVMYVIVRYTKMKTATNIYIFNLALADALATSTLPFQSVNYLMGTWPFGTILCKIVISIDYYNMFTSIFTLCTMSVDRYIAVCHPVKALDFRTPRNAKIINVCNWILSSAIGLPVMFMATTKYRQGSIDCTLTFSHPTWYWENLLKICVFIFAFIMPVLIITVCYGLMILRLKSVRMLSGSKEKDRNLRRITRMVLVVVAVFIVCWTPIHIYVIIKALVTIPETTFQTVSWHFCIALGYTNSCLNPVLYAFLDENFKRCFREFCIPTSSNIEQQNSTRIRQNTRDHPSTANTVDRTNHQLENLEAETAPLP

| SMILES | IC50 [nM] |
| --- | --- |
| Cc1c(C[C@@H](CNC(=O)C[C@@H](CC2CC2)c2cccnc2)N(C)C)ccc2c1CC(=O)N2 [Compound 179, (R)-4-cyclopropyl-N-((S)-2-(dimethylamino)-3-(4-methyl-2-oxoindolin-5-yl)propyl)-3-(pyridin-3-yl)butanamide] | < 300 |
| CN(C)[C@H](CNC(=O)CC(c1ccc(Cl)cn1)C1(C(F)(F)F)CC1)Cc1ccc(C(N)=O)c(F)c1 (stereo partly drawn) [Compound 69, 4-((2S)-3-(3-(5-chloropyridin-2-yl)-3-(1-(trifluoromethyl)cyclopropyl)propanamido)-2-(dimethylamino)propyl)-2-fluorobenzamide] | < 300 |
| CNC(=O)c1ccc(C[C@@H](CNC(=O)C[C@H](c2cncc(Cl)c2)C2(C(F)(F)F)CC2)N(C)C)c(Cl)c1 [Compound 114, 3-chloro-4-((S)-3-((R)-3-(5-chloropyridin-3-yl)-3-(1-(trifluoromethyl)cyclopropyl)propanamido)-2-(dimethylamino)propyl)-N-methylbenzamide] | < 300 |
| Cc1ncc([C@@H](CC(=O)NC[C@H](Cc2ccc(C(N)=O)c(F)c2C)N(C)C)C2(C(F)(F)F)CC2)cn1 [Compound 44, 4-((S)-2-(dimethylamino)-3-((R)-3-(2-methylpyrimidin-5-yl)-3-(1-(trifluoromethyl)cyclopropyl)propanamido)propyl)-2-fluoro-3-methylbenzamide] | < 300 |
| CN(C)[C@H](CNC(=O)CC(c1ncccn1)C1(C(F)(F)F)CC1)Cc1ccc(O)c(Cl)c1 (stereo partly drawn) [Compound 285, N-((S)-3-(3-chloro-4-hydroxyphenyl)-2-(dimethylamino)propyl)-3-(pyrimidin-2-yl)-3-(1-(trifluoromethyl)cyclopropyl)propanamide] | < 300 |
| CNC(=O)c1ccc(C[C@@H](CNC(=O)C[C@H](c2cnc(C)s2)C2(C(F)(F)F)CC2)N(C)C)c(F)c1 [Compound 123, 4-((S)-2-(dimethylamino)-3-((S)-3-(2-methylthiazol-5-yl)-3-(1-(trifluoromethyl)cyclopropyl)propanamido)propyl)-3-fluoro-N-methylbenzamide] | < 300 |
| CN(C)[C@H](CNC(=O)CC(c1ccncc1)C1(C(F)(F)F)CC1)Cc1ccc(C(N)=O)c(F)c1Cl (stereo partly drawn) [Compound 19, 3-chloro-4-[(2S)-2-(dimethylamino)-3-[3-(pyridin-4-yl)-3-[1-(trifluoromethyl)cyclopropyl]propanamido]propyl]-2-fluorobenzamide] | < 300 |
| Cc1cncc([C@@H](CC(=O)NC[C@H](Cc2ccc(O)cc2)N(C)C)C2(C(F)(F)F)CC2)c1 [Compound 300, (R)-N-((S)-2-(dimethylamino)-3-(4-hydroxyphenyl)propyl)-3-(5-methylpyridin-3-yl)-3-(1-(trifluoromethyl)cyclopropyl)propanamide] | < 300 |
| Cc1c(C[C@@H](CNC(=O)C[C@H](c2cccnc2)C2(C)CC2)N(C)C)ccc2[nH]ncc12 [Compound 199, (S)-N-((S)-2-(dimethylamino)-3-(4-methyl-1H-indazol-5-yl)propyl)-3-(1-methylcyclopropyl)-3-(pyridin-3-yl)propanamide] | < 300 |
| CN(C)[C@H](CNC(=O)C[C@H](c1cccnc1)C1(C(F)(F)F)CC1)Cc1cc(F)c(O)cc1F [Compound 238, (R)-N-((S)-3-(2,5-difluoro-4-hydroxyphenyl)-2-(dimethylamino)propyl)-3-(pyridin-3-yl)-3-(1-(trifluoromethyl)cyclopropyl)propanamide] | < 300 |
| CN(C)[C@H](CNC(=O)CC(c1ncccn1)C1(C(F)(F)F)CC1)Cc1ccc(C(N)=O)cc1Cl (stereo partly drawn) [Compound 27, 3-chloro-4-((2S)-2-(dimethylamino)-3-(3-(pyrimidin-2-yl)-3-(1-(trifluoromethyl)cyclopropyl)propanamido)propyl)benzamide] | < 300 |
| Cc1cnc([C@@H](CC(=O)NC[C@H](Cc2ccc(C(N)=O)c(F)c2)N(C)C)C2(C(F)(F)F)CC2)nc1 [Compound 57, 4-((S)-2-(dimethylamino)-3-((S)-3-(5-methylpyrimidin-2-yl)-3-(1-(trifluoromethyl)cyclopropyl)propanamido)propyl)-2-fluorobenzamide] | 300 to 3000 |
| Cc1c(C[C@@H](CNC(=O)C[C@H](c2ccncc2)C2(C(F)(F)F)CC2)N(C)C)ccc2[nH]ncc12 [Compound 196, (R)-N-((S)-2-(dimethylamino)-3-(4-methyl-1H-indazol-5-yl)propyl)-3-(pyridin-4-yl)-3-(1-(trifluoromethyl)cyclopropyl)propanamide] | < 300 |
| Cc1cc(C[C@@H](CNC(=O)C[C@H](c2cccnc2)C2(C(F)(F)F)CC2)N(C)C)cc2cn[nH]c12 [Compound 231, (R)-N-((S)-2-(dimethylamino)-3-(7-methyl-1H-indazol-5-yl)propyl)-3-(pyridin-3-yl)-3-(1-(trifluoromethyl)cyclopropyl)propanamide; bis(trifluoroacetic acid)] | < 300 |
| Cc1cc([C@@H](CC(=O)NC[C@H](Cc2ccc(O)cc2)N(C)C)C2(C(F)(F)F)CC2)ccn1 [Compound 299, (R)-N-((S)-2-(dimethylamino)-3-(4-hydroxyphenyl)propyl)-3-(2-methylpyridin-4-yl)-3-(1-(trifluoromethyl)cyclopropyl) propanamide] | < 300 |
| CN(C)[C@H](CNC(=O)C[C@H](c1ccsc1)C1(C(F)(F)F)CC1)Cc1ccc(C(N)=O)c(F)c1 [Compound 54, 4-((S)-2-(dimethylamino)-3-((S)-3-(thiophen-3-yl)-3-(1-(trifluoromethyl)cyclopropyl)propanamido)propyl)-2-fluorobenzamide] | > 3000 |
| CN(C)[C@H](CNC(=O)CC(c1ncc(Cl)cn1)C1(C(F)(F)F)CC1)Cc1ccc(C(N)=O)cc1Cl (stereo partly drawn) [Compound 31, 3-chloro-4-[(2S)-3-[3-(5-chloropyrimidin-2-yl)-3-[1-(trifluoromethyl)cyclopropyl]propanamido]-2-(dimethylamino)propyl]benzamide] | < 300 |
| CNC(=O)c1ccc(C[C@@H](CNC(=O)CC(c2ccc(Cl)cn2)C2(C(F)(F)F)CC2)N(C)C)c(Cl)c1 (stereo partly drawn) [Compound 122, 3-chloro-4-((2S)-3-(3-(5-chloropyridin-2-yl)-3-(1-(trifluoromethyl)cyclopropyl)propanamido)-2-(dimethylamino)propyl)-N-methylbenzamide] | < 300 |
| Cc1cc(O)cc(C)c1C[C@@H](CNC(=O)C[C@H](c1cncc(Cl)c1)C1(C(F)(F)F)CC1)N(C)C [Compound 245, (R)-3-(5-chloropyridin-3-yl)-N-((S)-2-(dimethylamino)-3-(4-hydroxy-2,6-dimethylphenyl)propyl)-3-(1-(trifluoromethyl)cyclopropyl)propanamide] | < 300 |
| Cc1ncc(C(CC(=O)NC[C@H](Cc2c(C)cc(O)cc2C)N(C)C)C2CC2)s1 (stereo partly drawn) [Compound 254, (S)-3-cyclopropyl-N-((S)-2-(dimethylamino)-3-(4-hydroxy-2,6-dimethylphenyl)propyl)-3-(2-methylthiazol-5-yl)propanamide] | < 300 |
| Cc1ncc([C@@H](CC(=O)NC[C@H](Cc2ccc(O)cc2)N(C)C)C2(C(F)(F)F)CC2)s1 [Compound 295, (S)-N-((S)-2-(dimethylamino)-3-(4-hydroxyphenyl)propyl)-3-(2-methylthiazol-5-yl)-3-(1-(trifluoromethyl)cyclopropyl)propanamide] | < 300 |
| CN(C)[C@H](CNC(=O)CC(c1ccncc1)C1(C(F)(F)F)CC1)Cc1ccc(O)c(Cl)c1 (stereo partly drawn) [Compound 284, N-((S)-3-(3-chloro-4-hydroxyphenyl)-2-(dimethylamino)propyl)-3-(pyridin-4-yl)-3-(1-(trifluoromethyl)cyclopropyl)propanamide] | < 300 |
| CN(C)[C@H](CNC(=O)C[C@H](c1cccnc1)C1(C)CC1)Cc1ccc(O)cc1C(F)(F)F [Compound 256, (S)-N-((S)-2-(dimethylamino)-3-(4-hydroxy-2-(trifluoromethyl)phenyl)propyl)-3-(1-methylcyclopropyl)-3-(pyridin-3-yl)propanamide] | < 300 |
| Cc1ccc([C@@H](CC(=O)NC[C@H](Cc2cc(F)c(C(N)=O)c(F)c2)N(C)C)C2(C(F)(F)F)CC2)cn1 [Compound 47, 4-((S)-2-(dimethylamino)-3-((R)-3-(6-methylpyridin-3-yl)-3-(1-(trifluoromethyl)cyclopropyl)propanamido)propyl)-26-difluorobenzamide] | < 300 |

same assay, conditions: CHO Tag-lite human mOR stable cell line; forskolin 4 μM and DAMGO at EC90; read-out: mOR cAMP Antagonist Assay IC50

| SMILES | IC50 [nM] |
| --- | --- |
| CNC(=O)c1cc(C)c(C[C@@H](CNC(=O)C[C@H](c2ccc(Cl)cc2)C2(C(F)(F)F)CC2)N(C)C)c(C)c1 [Compound 106, 4-((S)-3-((R)-3-(4-chlorophenyl)-3-(1-(trifluoromethyl)cyclopropyl)propanamido)-2-(dimethylamino)propyl)-3,5-trimethylbenzamide] | > 3000 |
| CNC(=O)c1cc(C)c(C[C@@H](CNC(=O)C[C@@H](CC(C)C)c2ccccn2)N(C)C)c(C)c1 [Compound 108, 4-((S)-2-(dimethylamino)-3-((R)-5-methyl-3-(pyridin-2-yl)hexanamido)propyl)-N,3,5-trimethylbenzamide] | > 3000 |
| CN(C)[C@H](CNC(=O)C[C@H](c1cncs1)C1(C(F)(F)F)CC1)Cc1ccc(C(N)=O)c(F)c1F [Compound 2, 4-((S)-2-(dimethylamino)-3-((S)-3-(thiazol-5-yl)-3-(1-(trifluoromethyl)cyclopropyl)propanamido)propyl)-2,3-difluorobenzamide] | < 300 |
| CN(C)[C@H](CNC(=O)CC(c1ncccn1)C1(C(F)(F)F)CC1)Cc1ccc2c(c1)CC(=O)N2 (stereo partly drawn) [Compound 188, N-((S)-2-(dimethylamino)-3-(2-oxoindolin-5-yl)propyl)-3-(pyrimidin-2-yl)-3-(1-(trifluoromethyl)cyclopropyl)propenamide] | 300 to 3000 |
| Cc1cnc([C@@H](CC(=O)NC[C@H](Cc2ccc(-c3nnc[nH]3)cc2)N(C)C)C2(C(F)(F)F)CC2)s1 [Compound 325, (S)-N-((S)-3-(4-(4H-1,2,4-triazol-3-yl)phenyl)-2-(dimethylamino)propyl)-3-(5-methylthiazol-2-yl)-3-(1-(trifluoromethyl)cyclopropyl) propanamide] | 300 to 3000 |
